What was measured:
[1] = target: T1, Nitric oxide synthase 3 (Homo sapiens) (UniProt P29474); experiment: Compound was evaluated for the Inhibition of endothelial isoform of Endothelial nitric oxide synthase (eNOS)enzyme at 100 uM concentration
T1 sequence (whole entry): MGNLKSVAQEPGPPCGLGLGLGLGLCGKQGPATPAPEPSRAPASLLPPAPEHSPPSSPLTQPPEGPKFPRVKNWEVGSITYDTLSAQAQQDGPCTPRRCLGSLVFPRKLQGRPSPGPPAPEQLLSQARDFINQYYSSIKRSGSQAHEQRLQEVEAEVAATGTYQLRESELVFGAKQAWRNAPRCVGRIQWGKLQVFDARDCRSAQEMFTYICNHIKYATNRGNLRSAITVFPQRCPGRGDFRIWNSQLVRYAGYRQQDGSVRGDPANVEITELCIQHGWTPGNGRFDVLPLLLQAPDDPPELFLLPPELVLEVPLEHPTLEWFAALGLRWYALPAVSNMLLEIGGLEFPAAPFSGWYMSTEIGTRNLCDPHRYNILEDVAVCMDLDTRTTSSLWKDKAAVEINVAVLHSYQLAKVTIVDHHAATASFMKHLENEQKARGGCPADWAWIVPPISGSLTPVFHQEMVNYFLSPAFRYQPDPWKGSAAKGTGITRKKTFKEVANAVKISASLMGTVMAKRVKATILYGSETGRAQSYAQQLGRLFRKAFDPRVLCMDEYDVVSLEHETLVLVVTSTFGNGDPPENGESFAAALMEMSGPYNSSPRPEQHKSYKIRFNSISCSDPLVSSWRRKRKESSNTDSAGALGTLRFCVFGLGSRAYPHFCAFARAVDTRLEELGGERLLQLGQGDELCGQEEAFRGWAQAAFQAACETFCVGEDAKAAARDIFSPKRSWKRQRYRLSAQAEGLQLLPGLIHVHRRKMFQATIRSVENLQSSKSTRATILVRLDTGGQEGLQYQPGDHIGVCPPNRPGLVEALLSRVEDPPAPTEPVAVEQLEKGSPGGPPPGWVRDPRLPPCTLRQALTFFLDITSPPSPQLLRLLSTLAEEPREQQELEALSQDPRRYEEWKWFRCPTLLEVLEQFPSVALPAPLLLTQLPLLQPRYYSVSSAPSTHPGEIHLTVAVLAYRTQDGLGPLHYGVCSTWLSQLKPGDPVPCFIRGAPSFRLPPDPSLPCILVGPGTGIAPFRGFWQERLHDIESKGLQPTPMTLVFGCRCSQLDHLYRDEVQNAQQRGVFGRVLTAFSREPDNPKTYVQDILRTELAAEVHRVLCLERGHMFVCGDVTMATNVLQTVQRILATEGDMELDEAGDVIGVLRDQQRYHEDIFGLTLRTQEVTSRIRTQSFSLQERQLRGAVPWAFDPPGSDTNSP

[2] = target: T2, Nitric oxide synthase, inducible (Homo sapiens, UniProt P35228); experiment: Compound was evaluated for the Inhibition of induced isoform of Inducible nitric oxide synthase at 100 uM concentration
T2 sequence (P35228 whole entry, canonical isoform): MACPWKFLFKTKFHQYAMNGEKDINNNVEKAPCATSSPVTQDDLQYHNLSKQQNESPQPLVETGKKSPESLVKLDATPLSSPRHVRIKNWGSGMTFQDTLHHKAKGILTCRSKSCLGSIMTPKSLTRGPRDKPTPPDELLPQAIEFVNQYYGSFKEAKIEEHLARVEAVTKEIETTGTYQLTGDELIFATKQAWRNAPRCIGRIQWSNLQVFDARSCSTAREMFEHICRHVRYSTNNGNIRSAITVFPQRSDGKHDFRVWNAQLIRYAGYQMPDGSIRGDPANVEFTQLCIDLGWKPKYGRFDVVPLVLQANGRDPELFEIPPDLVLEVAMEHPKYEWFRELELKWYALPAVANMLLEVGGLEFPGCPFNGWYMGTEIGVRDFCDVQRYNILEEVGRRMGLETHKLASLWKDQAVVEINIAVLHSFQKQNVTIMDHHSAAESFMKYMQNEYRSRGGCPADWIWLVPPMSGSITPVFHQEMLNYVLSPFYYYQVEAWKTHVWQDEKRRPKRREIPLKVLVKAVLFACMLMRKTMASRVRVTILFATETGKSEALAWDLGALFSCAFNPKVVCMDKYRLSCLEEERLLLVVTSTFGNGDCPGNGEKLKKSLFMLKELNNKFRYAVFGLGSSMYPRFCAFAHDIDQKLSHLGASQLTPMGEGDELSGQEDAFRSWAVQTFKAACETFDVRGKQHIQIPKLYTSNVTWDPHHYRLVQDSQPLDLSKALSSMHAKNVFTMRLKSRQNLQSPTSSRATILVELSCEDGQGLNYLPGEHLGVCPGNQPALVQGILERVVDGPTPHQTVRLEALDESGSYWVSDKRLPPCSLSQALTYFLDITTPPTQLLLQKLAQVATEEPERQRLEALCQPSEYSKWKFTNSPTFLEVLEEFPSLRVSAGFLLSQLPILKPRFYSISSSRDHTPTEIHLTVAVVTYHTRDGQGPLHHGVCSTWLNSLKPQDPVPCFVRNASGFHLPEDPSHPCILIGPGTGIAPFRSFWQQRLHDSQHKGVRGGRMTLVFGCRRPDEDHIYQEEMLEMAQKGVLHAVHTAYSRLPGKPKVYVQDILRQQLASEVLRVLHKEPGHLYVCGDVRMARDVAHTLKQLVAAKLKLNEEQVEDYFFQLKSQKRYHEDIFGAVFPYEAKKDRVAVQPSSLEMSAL

Nitric oxide synthase 1 [3] = target: T3, Nitric oxide synthase 1 (Homo sapiens, UniProt P29475); experiment: Compound was evaluated for the Inhibition of Neuronal nitric oxide synthase at 100 uM concentration
T3 sequence (P29475 whole entry, canonical isoform): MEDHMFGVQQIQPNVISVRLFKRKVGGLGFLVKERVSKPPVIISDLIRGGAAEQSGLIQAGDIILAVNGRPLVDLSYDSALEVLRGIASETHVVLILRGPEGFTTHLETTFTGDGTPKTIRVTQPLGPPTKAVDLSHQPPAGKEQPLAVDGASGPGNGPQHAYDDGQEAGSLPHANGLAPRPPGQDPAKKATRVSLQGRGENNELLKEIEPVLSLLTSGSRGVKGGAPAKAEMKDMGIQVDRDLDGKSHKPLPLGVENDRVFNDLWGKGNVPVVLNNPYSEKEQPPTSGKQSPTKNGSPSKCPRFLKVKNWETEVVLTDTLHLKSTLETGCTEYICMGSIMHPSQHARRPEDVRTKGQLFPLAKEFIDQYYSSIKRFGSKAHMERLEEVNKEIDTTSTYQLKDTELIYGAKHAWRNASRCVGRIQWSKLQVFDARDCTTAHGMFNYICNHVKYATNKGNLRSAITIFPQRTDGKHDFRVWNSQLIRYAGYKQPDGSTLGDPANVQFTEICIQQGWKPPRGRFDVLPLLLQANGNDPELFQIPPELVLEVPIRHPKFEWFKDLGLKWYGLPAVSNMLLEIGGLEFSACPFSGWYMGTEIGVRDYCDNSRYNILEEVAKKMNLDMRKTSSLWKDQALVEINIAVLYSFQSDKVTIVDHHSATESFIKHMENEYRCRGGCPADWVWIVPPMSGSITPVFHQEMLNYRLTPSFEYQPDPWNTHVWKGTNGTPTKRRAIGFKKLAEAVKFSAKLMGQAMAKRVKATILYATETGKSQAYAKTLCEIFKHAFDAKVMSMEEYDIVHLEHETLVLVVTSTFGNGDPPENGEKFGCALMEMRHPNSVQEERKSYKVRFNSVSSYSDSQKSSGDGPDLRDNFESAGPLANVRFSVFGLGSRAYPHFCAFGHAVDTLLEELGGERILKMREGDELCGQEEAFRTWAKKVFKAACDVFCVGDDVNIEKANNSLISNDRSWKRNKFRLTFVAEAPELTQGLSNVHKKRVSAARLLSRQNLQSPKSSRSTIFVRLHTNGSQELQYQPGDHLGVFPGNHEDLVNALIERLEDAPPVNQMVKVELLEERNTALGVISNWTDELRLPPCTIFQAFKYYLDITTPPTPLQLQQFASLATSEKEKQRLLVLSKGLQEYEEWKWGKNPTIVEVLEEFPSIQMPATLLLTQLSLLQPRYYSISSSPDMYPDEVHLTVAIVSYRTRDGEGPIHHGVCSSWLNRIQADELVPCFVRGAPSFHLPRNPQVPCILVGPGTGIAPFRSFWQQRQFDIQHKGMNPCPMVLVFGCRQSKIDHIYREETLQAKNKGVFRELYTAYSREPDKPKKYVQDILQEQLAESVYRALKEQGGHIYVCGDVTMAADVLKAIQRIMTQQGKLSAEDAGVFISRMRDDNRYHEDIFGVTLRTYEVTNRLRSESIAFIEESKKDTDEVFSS

Nitric oxide synthase 3 = target: T4, Nitric oxide synthase 3 (Homo sapiens, UniProt P29474); experiment: Compound was evaluated for the Inhibition of endothelial isoform of Endothelial nitric oxide synthase (eNOS)enzyme
T4 sequence (P29474 whole entry): T1 sequence (whole entry)

[4] = target: T2, Nitric oxide synthase, inducible; experiment: Compound was evaluated for the Inhibition of induced isoform of Inducible nitric oxide synthase
Nitric oxide synthase 1 [5] = target: T3, Nitric oxide synthase 1; experiment: Compound was evaluated for the Inhibition of Neuronal nitric oxide synthase
[6] = target: Nitric oxide synthase (inducible and endothelial) (Homo sapiens) (UniProt P35228+P29474); experiment: Selectivity index determined by the ratio of IC50 of eNOS to the iNOS; format: protein assay
Sequence of Nitric oxide synthase (inducible and endothelial) (Homo sapiens) (P35228 whole entry, looked up, one chain of several): as the sequence (P35228 whole entry, canonical isoform) above

[7] = target: Nitric oxide sythases; iNOS & nNOS (Homo sapiens) (UniProt P29475+P35228); experiment: Selectivity index determined by the ratio of IC50 of nNOS to the iNOS; format: protein assay
Sequence of Nitric oxide sythases; iNOS & nNOS (Homo sapiens) (P29475 whole entry, looked up): as the sequence (P29475 whole entry, canonical isoform) above
Sequence of Nitric oxide sythases; iNOS & nNOS (Homo sapiens) (P35228 whole entry, looked up): as the sequence (P35228 whole entry, canonical isoform) above

| inhibition [1] | inhibition [2] | inhibition (Nitric oxide synthase 1 [3]) | IC50 (Nitric oxide synthase 3) | IC50 [4] | IC50 (Nitric oxide synthase 1 [5]) | Selectivity index [6] | Selectivity index [7] | Structure (SMILES) |
| --- | --- | --- | --- | --- | --- | --- | --- | --- |
| 0% | 49% | 13% |  |  |  |  |  | CC(=N)NCCCC[C@H](N)[C@H](O)CO |
|  |  |  | 8.42 mM | 12 µM | 150 µM | 700 | 12 | CC(=N)NCCCC[C@H](N)[C@@H](O)CO |
|  |  |  | 0.138 mM | 5 µM |  | 30 | 12 | CC(=N)NCCCC[C@H](N)C(=O)O [L-NIL] |

— ChEMBL document CHEMBL1131487, “Acetamidine lysine derivative, N-(5(S)-amino-6,7-dihydroxyheptyl)ethanimidamide dihydrochloride: a highly selective inhibitor of human inducible nitric oxide synthase” (J Med Chem, 1998)
